Assay results: patent publication US11446253B2, “Ionic liquids for internal delivery” (priority 2017, dated 2022)
Values joined by “and” are separate entries in the source; they are usually repeats but may differ in a detail not shown here. Identical values can stand only once.

Tests used:
[1] = system: non-diabetic male Wistar rats; assay: Blood glucose lowering after oral administration in enterically coated capsules; assay type: in vivo, rat
Description: (§1) For the oral efficacy study, adult non-diabetic male Wistar rats were fasted overnight but given free access to water. On the next day, the capsules were administered to the rats using an oral gavage followed by subcutaneous administration of 5 mg/kg metoclopramide HCl to promote gastric emptying. Blood glucose was thereafter measured using a commercial glucose meter and subsequently every hour till 12 h. Rats were fasted throughout the period of study. […] In addition, the efficacy of subcutaneously injected 2 U/kg insulin-saline was also evaluated. […] The results were plotted as percent change in blood glucose level vs time.
as §1, with “To determine the efficacy of insulin-CAGE administered through the oral route, elongated size 9 capsules were used. […] Following this, the capsules were enterically coated three times with 12.5% w/v Eudragit® L-100 dissolved in isopropanol. For” for “For”, “Next” for “On the next”, “was” for “was also”, “time. […] After 12 h of study, rats were euthanized, and small intestinal sections were collected for tissue histology.” for “time.”

[2] = system: non-diabetic male Wistar rats; assay: In vivo bioactivity of insulin isolated from CAGE after storage; set-up: species or system rat; conditions: fresh, 1 U/kg subcutaneous, listed as Freshly prepared insulin solution
Description: Prior to insulin injections, rats were fasted overnight but given free access to water and fasting continued throughout the study to eliminate variability in blood glucose due to food consumption. The results were plotted as % change in blood glucose compared to initial level vs time.

Caco-2 monolayers = assay: FITC-insulin transport across Caco-2 monolayers; assay type: cell-based, human; conditions: Caco-2 monolayers, end of study at 5 h, 10 mM CAGE or saline
Description: TEER was measured on a regular basis and when it reached above 200 ohms·cm^2, indicating sufficient tight junction integrity between cells, transport study was performed.
After the end of study at 5 h, the FITC-insulin concentration in the aliquots were measured using a plate reader (Tecan, Infinite M1000, Mannedorf, Switzerland) at 495/520 nm excitation/emission wavelengths and plotted as % FITC-insulin transport vs time. Furthermore, TEER was measured at every time point when aliquots were withdrawn from the transwells and plotted as % change from initial value vs time.
TEER was measured on a regular basis and when it reached above 200 ohms. cm2, indicating sufficient tight junction integrity between cells, transport study was performed.
After the end of study at 5 h, the FITC-insulin concentration in the aliquots were measured using a plate reader (Tecan, Infinite M1000, Mannedorf, Switzerland) at 495/520 nm excitation/emission wavelengths and plotted as % FITC-insulin transport vs time. Furthermore, TEER was measured at every time point when aliquots were withdrawn from the transwells and plotted as […].

Non-diabetic Wistar rats = assay: Consecutive oral dosing of neat CAGE capsule and insulin capsule; assay type: in vivo, rat; conditions: 10 U/kg insulin oral, 10 h
Description: Non-diabetic Wistar rats were fasted overnight for 8 h but given access to water ad libitum. […] The blood glucose for time 0 was evaluated at this point. […] Fasting was continued with free access to water till the end of study at 12 h and blood glucose was evaluated at various time points. The results were plotted as % change in blood glucose compared to initial level vs time.

[3] = system: non-diabetic male Wistar rats; assay: Blood glucose lowering after intrajejunal administration; assay type: in vivo, rat
Description: Before the start of the study, the rats were anesthetized, abdominal hair clipped and the area prepped for surgery using 70% ethanol and betadine. An incision was made in the abdomen to expose the intestine. […] Each formulation was tested in 6 rats with the exception of saline which was tested in only 3 rats. Thereafter, intestinal section was placed back into the abdomen and the muscle and skin sutured. Blood glucose was determined using a commercial glucose meter in the beginning and at every 0.5 h till the end of study at 5 h. The animals remained anesthetized throughout the study, at the end of which they were euthanized and the intestinal section around the injection site was removed for further histological examination to determine toxicity, if any. […] The results were plotted as % change in blood glucose levels with respect to initial reading at t=0 vs time.
Before the start of the study, the rats were anesthetized, abdominal hair clipped, and the surgery area was prepped using 70% ethanol and betadine. An incision was made in the abdomen to expose the intestine. […] The time zero blood glucose was taken after the intestine was exposed i.e. immediately prior to the injections. Each formulation was tested in 6 rats with the exception of saline which was tested in only 3 rats. Thereafter, intestinal section was placed back into the abdomen and the muscle and skin sutured. Blood glucose was determined using a commercial glucose meter at the beginning and at every 0.5 h till the end of study at 5 h. Loss in body temperature in the animals during anesthesia was prevented by placing the animals on temperature controlled warming pads prior to surgery followed by additional towel cover after surgery. The animals remained anesthetized throughout the study and were euthanized after 5 h. At the end of study at 5 h, the intestinal section around the injection site was removed for further histological examination to determine toxicity, if any. […] The results were plotted as % change in blood glucose levels with respect to initial reading vs time. In addition, the saline group was considered as fasting control and graphs were plotted after subtracting blood glucose levels of the saline group.

bovine trypsin = target: T1, bovine trypsin (Bos taurus, UniProt P00760); assay: Trypsin-mediated degradation of insulin (LC-MS); assay type: biochemical; conditions: incubated with trypsin, 37° C., 24 h
T1 construct: purchased MP Biomedicals (Santa Ana, Calif., USA)
T1 sequence (P00760 24-246): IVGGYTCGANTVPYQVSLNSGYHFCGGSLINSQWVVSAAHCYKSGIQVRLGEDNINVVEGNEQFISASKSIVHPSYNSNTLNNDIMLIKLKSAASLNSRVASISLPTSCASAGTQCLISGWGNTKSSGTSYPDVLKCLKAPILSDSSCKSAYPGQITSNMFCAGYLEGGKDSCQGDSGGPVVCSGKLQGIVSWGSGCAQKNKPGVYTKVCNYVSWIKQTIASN
Description: Immediately after vortex (time=0 h; t0) and at predetermined time intervals, 0.1 mL of the insulin-trypsin mixture was aliquoted, and the enzyme activity was inhibited by the addition of 0.1 mL of ice-cold 0.1% trifluoroacetic acid/acetonitrile solution (69:31, v/v). The samples were analyzed by liquid chromatography-mass spectrometry (LC-MS) to determine the amount of intact insulin in the solution at different times. An Agilent 1290/6140 Ultra High Performance Liquid Chromatography/Mass Spectrometer consisting of a 1290 Infinity LC™ binary pump, thermostat column compartment, 1290 Infinity autosampler, an Agilent 1290 diode array detector and an Agilent 6140 quadrupole MSD system was used for the analyses. For an analysis, 3 μL of the samples were injected into an Agilent 300SB-C18 2.1×75 mm, 5 μm, maintained at 25° C. and eluted with a mobile phase consisting of a gradient mixture of deionized water with 0.1% formic acid (FA) (A) and acetonitrile (B) with 0.1% FA. A gradient of 95-5% (0 min), 0-100% (10 min), 0-100% (15 min), 95-5% (15.1 min), 95-5% (18 min) A:B was used for each run. […] All experiments were conducted in triplicate and are reported are mean±standard deviation.

[4] = Serum insulin pharmacokinetics (human insulin ELISA); conditions: for AUCtotal: insulin-CAGE 5 U/kg intrajejunal, insulin 2 U/kg subcutaneous
Description: Standard protocol was followed for separation of serum from whole blood. Briefly, the blood samples were left undisturbed at RT for 15-30 minutes to allow clot formation, followed by centrifugation at 2,000 g for 10 minutes.
Fasting prior to anti-diabetic efficacy studies is routinely done (29, 62, 63). It helps avoid fluctuations in the blood glucose levels as a result of eating, which can vary between animals based on the amount and time of food intake. All animal experiments were performed in accordance with the University of California Santa Barbara animal care committee guidelines and to the Guide for the Care and Use of Animals of the Institute of Laboratory Animal Resources, National Research Council. […] The time zero blood glucose was taken after the intestine was exposed i.e. immediately prior to the injections. […] Loss in body temperature in the animals during anesthesia was prevented by placing the animals on temperature controlled warming pads prior to surgery followed by additional towel cover after surgery. The animals remained anesthetized throughout the study and were euthanized after 5 h. […] In addition, the saline group was considered as fasting control and graphs were plotted after subtracting blood glucose levels of the saline group. […] Standard protocol was followed for separation of serum from whole blood. Briefly, blood samples were left undisturbed at RT for 15-30 minutes to clot, followed by centrifugation at 2,000 g for 10 minutes. […] Pharmacodynamic bioavailability was calculated using AUC obtained from efficacy plots.

[5] = stored at 4° C.; cited from earlier work
Caco-2 cells = assay: Tight junction integrity (TEER) in Caco-2 cells; assay type: cell-based, human; conditions: FITC-insulin with 10 mM CAGE or saline, 5 h
Description: […] Furthermore, TEER was measured at every time point when aliquots were withdrawn from the transwells and plotted as % change from initial value vs time.
TEER values were recorded for each insert. […] TEER was plotted as % change from initial value vs time.

## insulin: human insulin (Sigma-Aldrich) in saline or buffer, comparator
[1]; 2 U/kg subcutaneous, 1 h
  blood glucose, % of initial level: 51.43±5.25% and 51±5%
  drop in blood glucose: 50% and 49%
[1]; oral controls, 12 h
  decrease in blood glucose of formulation controls: about 25%
[2]; 1 h
  blood glucose, % of initial level: 50.73±2.47% and 51±2%
  drop in blood glucose: 50% and 49%
[2]; 2 h
  blood glucose, % of initial level: 49.59±4.4% and 50±4%
[2]; 5 h
  blood glucose, % of original level: 92.05±4.8% and 92±5%
Caco-2 monolayers
  FITC-insulin transport: 10%
Non-diabetic Wistar rats
  blood glucose drop: around 34%
  blood glucose, % of initial levels: 66.9±7.1%
[3]; 2 U/kg subcutaneous, 1 h
  blood glucose, % of initial level: 48.76±7.55% and 49±8%
  maximum drop in blood glucose: 51%
[3]; 2 U/kg subcutaneous, 5 h
  blood glucose, % of initial level: 101.61±6.69% and 101±7%
[3]; intrajejunal controls (neat CAGE, 3 U/kg insulin-saline), 5 h
  decrease in blood glucose of control groups, % of initial level: about 25%
Bovine trypsin
  intact insulin remaining: 5±0.4%
[4]; 3 U/kg intrajejunal
  serum insulin concentration: hardly increased
[4]; 5 U/kg intrajejunal
  serum insulin level with time: did not show any increase
[4]; Table 1
  AUCtotal: 237.6 μIU · h/ml
[4]; Table 2
  AUCtotal: 237.6 μIU · h/mL
[5]
  stability at 4° C.: 2 to 7 days
Caco-2 cells
  TEER, % of initial value: 98.5±2.64%
